Source: the NIST ThermoML archive (doi:10.1021/je700033y)
Numbers after ± are expanded uncertainties.

Settings: Liquid, High pressure cell

vapor or sublimation pressure (353.1 K): 181 ± 3 kPa
vapor or sublimation pressure (393.1 K): 635 ± 3 kPa
Compound: CO [methanol]
